Patent publication US11964990B2, “1,3,4,7-tetrahydro-2H-pyrrolo[3′,2′:5,6]pyrido[2,3-b][1,4]oxazepine bcl-2 inhibitors” (AbbVie Inc., priority 2022, dated 2024)

Experiments:
RS4;11 cells = experiment: Cell viability assay (CellTiter-Glo) in RS4;11 cell line; format: cell-based; conditions: 24 hours, 10% Human Serum, 50% decrease in cell viability
Procedure, shortened: (§1)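 RS4;11 or Molt-4 cells (3000 per well) in RPMI 1640 with 10% human serum treated with compound for 24 h, 5% CO2. Viability measured by CellTiter-Glo as percent of control; EC50 from sigmoidal dose-response curves.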

Molt-4 cells = experiment: Cell viability counter screen assay (CellTiter-Glo) in Molt-4 cells; format: cell-based; conditions: 24 hours, 10% Human Serum, 50% decrease in cell viability
Procedure, shortened: as §1

Bcl-2 protein = Bcl-2 protein (Homo sapiens (Human), UniProt P10415); experiment: TR-FRET binding assay, Bcl-2 (F-Bak peptide probe); conditions: Bak BH3 peptide probe, Wang's equation
Description: (§2) Determination of the utility of compounds having Formula (I) or Formula (II) as binders to and inhibitors of anti-apoptotic Bcl-2 proteins was performed using the Time Resolved-Fluorescence Resonance Energy Transfer (TR-FRET) Assay. Tb-anti-GST antibody was purchased from Invitrogen (Catalog No. PV4216).
A Bcl-2 human encoding sequence was cloned into a pET41A vector (Novagen). The protein was expressed with E. coli. BL21(DE3)-T1R strain in OETB autoinduction medium at 30° C. for 25 hours. The cell pellets were resuspended in lysis buffer (50 mM Tris, 140 mM NaCl, 1 mM DTT, 10% Glycerol, 2 mM MgCl2, pH 7.3) and lysed with Microfluidizer. The Bcl-2 protein in clarified cell-lysate was purified with affinity chromatography (GST and Ni-NTA). The eluate was loaded onto a Superdex 75 column and further purified with a Q Sepharose column. The protein was purified on a phenyl hydrophobic interaction column and dialyzed in the storage buffer (50 mM Tris, 50 mM NaCl, 2 mM DTT, pH 7.5) and stored at −80° C.
(§3) […] of a protein (Bcl-2 or Bcl-xL)/probe/antibody mixture pre-equilibrated for one hour in assay buffer was added to each well at final concentrations listed in Table 6 below.
(§4) The samples were then mixed on a shaker for 1 minute and equilibrated for an additional 3 hours at room temperature. For each assay plate, a probe/antibody and protein/antibody/probe mixture were included as a negative and a positive control, respectively. Fluorescence was measured on the Envision (Perkin Elmer) using a 340/35 nm excitation filter and 520/525 (F-Bak) and 495/510 nm (Tb-labeled anti-GST antibody) emission filters. Inhibition constants (Ki) were determined using Wang's equation (Wang FEBS Lett. 1995, 360, 111-114). The TR-FRET assay can be performed in the presence of varying concentrations of human serum (HS) to determine apparent half maximal inhibitory concentration (IC50) after HS protein binding.
(§5) Inhibition constants were determined using Wang's equation (Wang FEBS Lett. 1995, 360:111-4).

Bcl-xL protein = Bcl-xL protein (Homo sapiens (Human), UniProt Q07817); experiment: TR-FRET binding assay, Bcl-xL (F-Bak peptide probe); conditions: Bak BH3 peptide probe, Wang's equation
Description: as §2
A human Bcl-xL encoding sequence was cloned into a pET41A vector. The protein was expressed with E. coli. BL21(DE3)-T1R strain in OETB autoinduction medium at 30° C. for 25 hours. The cell pellets were resuspended in lysis buffer (50 mM Tris, 140 mM NaCl, 1 mM DTT, 10% Glycerol, 0.1% Triton X-100, pH 7.5) and lysed with Microfluidizer. The Bcl-xL protein in clarified cell-lysate was purified with GST affinity chromatography. The eluate was dialyzed in the storage buffer (1×PBS, 10% Glycerol, 2 mM DTT, 1 mM Sodium Azide, pH 7.4) and stored at −80° C.
as §3, §4, §5

Chain of Bcl-2 protein (P10415 other isoform, or with tags, fused parts or gaps): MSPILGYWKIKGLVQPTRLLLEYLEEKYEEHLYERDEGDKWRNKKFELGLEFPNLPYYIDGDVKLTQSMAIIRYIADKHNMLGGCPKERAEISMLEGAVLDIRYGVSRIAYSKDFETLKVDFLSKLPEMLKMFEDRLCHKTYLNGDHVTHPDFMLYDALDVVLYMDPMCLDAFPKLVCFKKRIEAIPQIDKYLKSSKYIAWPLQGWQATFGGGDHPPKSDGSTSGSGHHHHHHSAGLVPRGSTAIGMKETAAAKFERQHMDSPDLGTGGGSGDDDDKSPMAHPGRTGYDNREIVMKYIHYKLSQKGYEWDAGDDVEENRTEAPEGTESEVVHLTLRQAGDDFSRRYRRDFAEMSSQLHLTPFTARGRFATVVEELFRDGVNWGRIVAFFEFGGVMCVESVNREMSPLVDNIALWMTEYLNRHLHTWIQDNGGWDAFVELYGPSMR
Chain of Bcl-xL protein (Q07817 other isoform, or with tags, fused parts or gaps): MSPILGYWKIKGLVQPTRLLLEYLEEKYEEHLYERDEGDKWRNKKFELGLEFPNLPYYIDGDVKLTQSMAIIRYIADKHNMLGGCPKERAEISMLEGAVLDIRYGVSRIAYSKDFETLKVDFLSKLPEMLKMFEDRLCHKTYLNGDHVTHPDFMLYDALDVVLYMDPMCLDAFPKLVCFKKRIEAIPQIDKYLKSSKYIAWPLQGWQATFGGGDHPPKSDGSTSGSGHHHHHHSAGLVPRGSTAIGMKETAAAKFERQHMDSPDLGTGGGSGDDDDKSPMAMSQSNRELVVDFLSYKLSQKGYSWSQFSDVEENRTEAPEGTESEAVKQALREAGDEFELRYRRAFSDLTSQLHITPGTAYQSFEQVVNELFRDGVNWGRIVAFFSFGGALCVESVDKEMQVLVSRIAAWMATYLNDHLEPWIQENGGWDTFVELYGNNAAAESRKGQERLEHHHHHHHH

Row | SMILES | EC50 (RS4;11 cells) [nM] | EC50 (Molt-4 cells) [nM] | Ki (Bcl-2 protein) [nM] | Ki (Bcl-xL protein) [nM]
1 | CC1(C)CC(c2ccc(Cl)cc2)=C2CN3CCN(c4ccc(C(=O)NS(=O)(=O)c5ccc(OC[C@H]6CC[C@H](N7CCOCC7)CC6)c(Cl)c5)c(N5CCCOc6nc7[nH]ccc7cc65)c4)C[C@H]3COCCCO[C@@H]2C1 [Example 38, N-((3-chloro-4-(((1r,4r)-4-morpholinocyclohexyl)methoxy)phenyl)sulfonyl)-4-((4aS,10aR)-14-(4-chlorophenyl)-12,12-dimethyl-1,2,4a,5,8,9,10a,11,13,15-decahydro-7H,12H-benzo[f]pyrazino[2,1-c][1,8]dioxa[4]azacycloundecin-3(4H)-yl)-2-(3,4-dihydro-2H-pyrrolo[3′,2′:5,6]pyrido[2,3-b][1,4]oxazepin-1(7H)-yl)benzamide] | 26 | 2340 | 0.108 | 5.62
2 | CC1(C)CC(c2ccc(Cl)cc2)=C2CN3CCN(c4ccc(C(=O)NS(=O)(=O)c5cnc(OC[C@H]6CC[C@](C)(O)CC6)c(Cl)c5)c(N5CCCOc6nc7[nH]ccc7cc65)c4)C[C@H]3COCCCO[C@@H]2C1 [Example 42, N-((5-chloro-6-(((1r,4r)-4-hydroxy-4-methylcyclohexyl)methoxy)pyridin-3-yl)sulfonyl)-4-((4aS,10aR)-14-(4-chlorophenyl)-12,12-dimethyl-1,2,4a,5,8,9,10a,11,13,15-decahydro-7H,12H-benzo[f]pyrazino[2,1-c][1,8]dioxa[4]azacycloundecin-3(4H)-yl)-2-(3,4-dihydro-2H-pyrrolo[3′,2′:5,6]pyrido[2,3-h][1,4]oxazepin-1(7H)-yl)benzamide] | 11.3 | > 10000 | 0.159 | 25.1
3 | CC1(C)CC(c2ccc(Cl)cc2)=C2CN3CCN(c4ccc(C(=O)NS(=O)(=O)c5ccc(OC[C@H]6CC[C@](C)(O)CC6)c(Cl)c5)c(N5CCCOc6nc7[nH]ccc7cc65)c4)C[C@H]3COCCCO[C@@H]2C1 [Example 43, N-((3-chloro-4-(((1r,4r)-4-hydroxy-4-methylcyclohexyl)methoxy)phenyl)sulfonyl)-4-((4aS,10aR)-14-(4-chlorophenyl)-12,12-dimethyl-1,2,4a,5,8,9,10a,11,13,15-decahydro-7H,12H-benzo[f]pyrazino[2,1-c][1,8]dioxa[4]azacycloundecin-3(4H)-yl)-2-(3,4-dihydro-2H-pyrrolo[3′,2′:5,6]pyrido[2,3-b][1,4]oxazepin-1(7H)-yl)benzamide] | 17.7 | > 10000 | 0.0853 | 29.7
4 | CC1(C)CC(c2ccc(Cl)cc2)=C2CN3CCN(c4ccc(C(=O)NS(=O)(=O)c5ccc(OC[C@H]6CC[C@](C)(O)CC6)c([N+](=O)[O-])c5)c(N5CCCOc6nc7[nH]ccc7cc65)c4)C[C@H]3COCCCO[C@@H]2C1 [Example 44, 4-((4aS,10aR)-14-(4-chlorophenyl)-12,12-dimethyl-1,2,4a,5,8,9,10a,11,13,15-decahydro-7H,12H-benzo[f]pyrazino[2,1-c][1,8]dioxa[4]azacycloundecin-3(4H)-yl)-2-(3,4-dihydro-2H-pyrrolo[3′,2′:5,6]pyrido[2,3-b][1,4]oxazepin-1(7H)-yl)-N-((4-(((1r,4r)-4-hydroxy-4-methylcyclohexyl)methoxy)-3-nitrophenyl)sulfonyl)benzamide] | 4.39 | 2270 | 0.0898 | 7.98
5 | CC1(C)CC(c2ccc(Cl)cc2)=C2CN3CCN(c4ccc(C(=O)NS(=O)(=O)c5ccc(NCC6CCCCO6)c([N+](=O)[O-])c5)c(N5CCCOc6nc7[nH]ccc7cc65)c4)C[C@H]3COCCCO[C@@H]2C1 (stereo partly drawn) [Example 45, 4-((4aS,10aR)-14-(4-chlorophenyl)-12,12-dimethyl-1,2,4a,5,8,9,10a,11,13,15-decahydro-7H,12H-benzo[f]pyrazino[2,1-c][1,8]dioxa[4]azacycloundecin-3(4H)-yl)-2-(3,4-dihydro-2H-pyrrolo[3′,2′:5,6]pyrido[2,3-b][1,4]oxazepin-1(7H)-yl)-N-((3-nitro-4-(((tetrahydro-2H-pyran-2-yl)methyl)amino)phenyl)sulfonyl)benzamide] | 10.7 | > 10000 | 0.238 | 27.8
6 | COC[C@]1(F)C[C@H](CNc2ccc(S(=O)(=O)NC(=O)c3ccc(N4CCN5CC6=C(c7ccc(Cl)cc7)CC(C)(C)C[C@H]6OCCCOC[C@@H]5C4)cc3N3CCCOc4nc5[nH]ccc5cc43)cc2[N+](=O)[O-])C1 [Example 47, 4-((4aS,10aR)-14-(4-chlorophenyl)-12,12-dimethyl-1,2,4a,5,8,9,10a,11,13,15-decahydro-7H,12H-benzo[f]pyrazino[2,1-c][1,8]dioxa[4]azacycloundecin-3(4H)-yl)-2-(3,4-dihydro-2H-pyrrolo[3′,2′:5,6]pyrido[2,3-b][1,4]oxazepin-1(7H)-yl)-N-((4-((((1r,3r)-3-fluoro-3-(methoxymethyl)cyclobutyl)methyl)amino)-3-nitrophenyl)sulfonyl)benzamide] | 10.9 | > 10000 | 0.28 | 25.8
7 | CO[C@]1(CF)C[C@@H](CNc2ccc(S(=O)(=O)NC(=O)c3ccc(N4CCN5CC6=C(c7ccc(Cl)cc7)CC(C)(C)C[C@H]6OCCCOC[C@@H]5C4)cc3N3CCCOc4nc5[nH]ccc5cc43)cc2[N+](=O)[O-])C1 [Example 48, 4-((4aS,10aR)-14-(4-chlorophenyl)-12,12-dimethyl-1,2,4a,5,8,9,10a,11,13,15-decahydro-7H,12H-benzo[f]pyrazino[2,1-c][1,8]dioxa[4]azacycloundecin-3(4H)-yl)-2-(3,4-dihydro-2H-pyrrolo[3′,2′:5,6]pyrido[2,3-b][1,4]oxazepin-1(7H)-yl)-N-((4-((((1r,3r)-3-(fluoromethyl)-3-methoxycyclobutyl)methyl)amino)-3-nitrophenyl)sulfonyl)benzamide] | 18.1 | 5840 | 0.206 | 28.6
8 | CC1(C)CC(c2ccc(Cl)cc2)=C2CN3CCN(c4ccc(C(=O)NS(=O)(=O)c5cnc(OC[C@H]6CC[C@@](C)(O)CC6)c(Cl)c5)c(N5CCCOc6nc7[nH]ccc7cc65)c4)C[C@H]3COCCCO[C@@H]2C1 [Example 50, N-((5-chloro-6-(((1s,4s)-4-hydroxy-4-methylcyclohexyl)methoxy)pyridin-3-yl)sulfonyl)-4-((4aS,10aR)-14-(4-chlorophenyl)-12,12-dimethyl-1,2,4a,5,8,9,10a,11,13,15-decahydro-7H,12H-benzo[f]pyrazino[2,1-c][1,8]dioxa[4]azacycloundecin-3(4H)-yl)-2-(3,4-dihydro-2H-pyrrolo[3′,2′:5,6]pyrido[2,3-b][1,4]oxazepin-1(7H)-yl)benzamide] | 41.9 | > 10000 | 0.237 | 39.7
9 | CO[C@@H]1CC[C@@H](COc2ccc(S(=O)(=O)NC(=O)c3ccc(N4CCN5CC6=C(c7ccc(Cl)cc7)CC(C)(C)C[C@H]6OCCCOC[C@@H]5C4)cc3N3CCCOc4nc5[nH]ccc5cc43)cc2[N+](=O)[O-])OC1 [Example 51] | 9.6 | > 10000 | 0.1 | 18.9
